The results in this text go back to paper PMC12542817, “LaIT6: A Novel Insect-Selective K^+-Channel Toxin from Liocheles australasiae Scorpion Venom” (Molecules, 2025).

For one data set, the target named is T1, Shaker-IR K+ channel (Drosophila melanogaster, UniProt P08510, DEL6-46).
T1 construct: expressed in transfected cells; host or cells: Xenopus laevis oocytes injected with in-vitro-transcribed cRNA
Put plainly: Two-electrode voltage clamp on Shaker-IR K+ channel expressed in Xenopus oocytes. It is filed as biochemical. The conditions noted are these: for IC50: TEVC in Xenopus laevis oocytes, ND96 pH 7.4, 18–22 °C, n ≥ 3 per concentration, read-out: IC50, inhibition of Shaker-IR K+ channel. How it is done:
Electrophysiological experiments were carried out in Xenopus laevis oocytes. Linearized plasmids encoding Shaker-IR, hKv1.1, and hKv1.2 channels were transcribed using the T7 mMESSAGE mMACHINE transcription kit (Ambion, Austin, TX, USA). Mature female animals were purchased from Nasco (Fort Atkinson, WI, USA) and were housed in the Aquatic Facility (KU Leuven) in compliance with the regulations of the European Union (EU) concerning the welfare of laboratory animals as declared in Directive 2010/63/EU. The use of X. laevis oocytes was approved by the Animal Ethics Committee of the KU Leuven with license number P186/2019. Stage V–VI oocytes were collected from anesthetized female X. laevis frogs as previously described, with the frogs anesthetized by placement in 0.1% tricaine solution (amino benzoic acid ethyl ester; Merck, Rahway, NJ, USA). Oocyte microinjection was performed using a microinjector (World Precision Instruments, Sarasota, FL, USA), with a programmed cRNA injection volume of 4–10 nL, depending on the channel subtype. The oocytes were incubated in an MBS solution (88 mM NaCl, 1 mM KCl, 2.5 mM NaHCO3, 1 mM MgSO4, and 5 mM HEPES, pH 7.8) supplemented with 50 mg/L gentamicin sulfate and 90 mg/L theophylline. Electrophysiological measurements were performed at room temperature (18–22 °C) using the two-electrode voltage clamp (TEVC) technique. Data were obtained using a GeneClamp 500 amplifier (Axon Instruments, Burlingame, CA, USA), and Clampex9 software (Axon Instruments, Union City, CA, USA) was used for data acquisition and storage. Glass micropipettes were produced using glass capillaries (borosilicate WPI 1B120-6) and drawn in a WPI (World Precision Instruments, Sarasota, FL, USA) manual stretcher. The bath and perfusion solutions were ND96 (96 mM NaCl, 2 mM KCl, 1.8 mM CaCl2, 2 mM MgCl2, and 5 mM HEPES, pH 7.4). Whole-cell currents of oocytes were recorded 1 to 3 days after injection. Current and voltage electrodes were filled with 3 M KCl, and their resistance was adjusted from 0.5 to 1.5 MΩ. […]
A general note: Two-electrode voltage clamp is typically applied to oocytes expressing channels or transporters.

Data set [1] relates to crickets (Acheta domesticus). Put plainly: Insecticidal activity against crickets (injection, LD50). It is filed as in vivo. The conditions noted are these: injection into abdominal region in distilled water; Acheta domesticus 45–55 mg; ten insects per dose; dead insects counted 48 h after injection; brackets = 95% confidence interval. As to the method: (§1) The insecticidal activity was evaluated as previously described. In this study, we used crickets (Acheta domesticus, 45–55 mg), houseflies (Musca domestica, 13–17 mg), silkworms (Bombyx mori, 225–275 mg), and cockroaches (Periplaneta americana, 75–225 mg). Each peptide in distilled water was injected into the abdominal region of insects. As a negative control, distilled water was used. Ten insects were used for each dose, except for doses of 3.1 and 6.3 nmol in LaIT6(R24A), for which 15 and 20 insects were used, respectively. The number of dead insects was counted 48 h after injection (24 h after injection in the case of houseflies). […] Toxicity to mammals was evaluated as previously described. The sample solution in a PBS buffer was injected intracerebroventricularly into mice (male Slc:ICR strain, 20 g) after anesthetizing with isoflurane. As a negative control, PBS buffer was used. Three animals were used for each measurement, and toxic symptoms were monitored for up to 24 h. The experimental protocol was approved by the Ethical Committee for the Welfare of Animals at Kyoto University.

Data set [2] has as its system mice (male Slc:ICR strain). The data set can be described thus: Mammalian toxicity, intracerebroventricular injection into mice. It is filed as in vivo, mouse. Particulars: injection dose 50 nmol/kg, in PBS, male Slc:ICR mice 20 g, three animals, monitored for up to 24 h. How it is done:
as §1

Where two headings read alike, the source gives them in different places. Where a SMILES comes first, the peptide text is derived from it. Where no end group is shown, it is not given here.

T1 sequence (P08510 with tags, fused parts or gaps DEL6-46): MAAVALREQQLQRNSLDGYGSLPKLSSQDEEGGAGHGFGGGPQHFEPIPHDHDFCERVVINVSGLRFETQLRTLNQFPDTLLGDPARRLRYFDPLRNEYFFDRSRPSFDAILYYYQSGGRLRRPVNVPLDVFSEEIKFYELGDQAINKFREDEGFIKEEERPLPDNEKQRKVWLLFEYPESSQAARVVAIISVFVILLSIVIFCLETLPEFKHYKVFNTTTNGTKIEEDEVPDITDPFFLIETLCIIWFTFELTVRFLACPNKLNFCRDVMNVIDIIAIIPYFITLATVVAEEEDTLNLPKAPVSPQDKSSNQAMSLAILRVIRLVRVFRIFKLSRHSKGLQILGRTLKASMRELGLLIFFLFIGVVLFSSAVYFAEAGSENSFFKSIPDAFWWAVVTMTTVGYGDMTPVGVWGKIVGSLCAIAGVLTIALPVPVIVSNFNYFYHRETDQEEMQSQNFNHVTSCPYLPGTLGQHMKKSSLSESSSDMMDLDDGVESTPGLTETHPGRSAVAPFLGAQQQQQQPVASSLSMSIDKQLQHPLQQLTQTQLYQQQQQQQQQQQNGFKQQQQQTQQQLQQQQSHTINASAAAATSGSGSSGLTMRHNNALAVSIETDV

As for `CC[C@H](C)[C@@H]1NC(=O)[C@@H]2CSSC[C@H](NC(=O)[C@@H]3CCCN3C(=O)[C@@H](NC(=O)[C@H](CC(N)=O)NC(=O)[C@@H]3CCCN3C(=O)[C@@H]3CCCN3C(=O)[C@@H](NC(=O)[C@@H](N)CO)C(C)C)[C@@H](C)CC)C(=O)N[C@@H](CCC(N)=O)C(=O)N[C@@H](C(C)C)C(=O)N[C@@H]([C@@H](C)O)C(=O)N[C@@H](CC(N)=O)C(=O)N[C@@H](CCC(N)=O)C(=O)N[C@H]3CSSC[C@H](NC(=O)[C@H](CCCNC(=N)N)NC(=O)CNC(=O)[C@H](CC(N)=O)NC1=O)C(=O)N[C@@H](CCCCN)C(=O)N[C@H](C(=O)N[C@@H](Cc1ccc(O)cc1)C(N)=O)CSSC[C@H](NC(=O)[C@@H]1CCCN1C(=O)[C@H](CCCCN)NC(=O)[C@@H]1CCCN1C3=O)C(=O)N[C@@H](CCCNC(=N)N)C(=O)N[C@@H](CCC(=O)O)C(=O)N[C@@H](C)C(=O)N[C@@H]([C@@H](C)O)C(=O)NCC(=O)N[C@@H](CCCNC(=N)N)C(=O)N1CCC[C@H]1C(=O)N[C@@H](CC(N)=O)C(=O)N[C@@H](CO)C(=O)N[C@@H](C)C(=O)N2` [LaIT6(K28A)] (HELM PEPTIDE1{S.V.P.P.N.I.P.C.Q.V.T.N.Q.C.P.K.P.C.R.E.A.T.G.R.P.N.S.A.C.I.N.G.R.C.K.C.Y.[am]}$PEPTIDE1,PEPTIDE1,8:R3-29:R3|PEPTIDE1,PEPTIDE1,14:R3-34:R3|PEPTIDE1,PEPTIDE1,18:R3-36:R3$$$V2.0), the half-maximal inhibitory concentration (IC50) on Shaker-IR K+ channel (95% CI 0.81–6.7 µM) came to 2300 nM. At Shaker-IR K+ channel (ratio of IC50 LaIT6(K28A) to IC50 LaIT6), the “IC50 on Shaker-IR relative to wild-type LaIT6 (times higher)” value is listed as “approximately 300 times”.

Take “SVPPNIPCQVTNQCPKPCREATGRPNSKCINGRCKCY-OH (disulfide (positions not given here)) [LaIT6(COOH), LaIT6 analog, C-terminal amide group converted to a carboxyl group]”: the “LD50, insecticidal activity against crickets” value in data set [1] is 19 (14–25) nmol/g.

As for `CC[C@H](C)[C@@H]1NC(=O)[C@@H]2CSSC[C@H](NC(=O)[C@@H]3CCCN3C(=O)[C@@H](NC(=O)[C@H](CC(N)=O)NC(=O)[C@@H]3CCCN3C(=O)[C@@H]3CCCN3C(=O)[C@@H](NC(=O)[C@@H](N)CO)C(C)C)[C@@H](C)CC)C(=O)N[C@@H](CCC(N)=O)C(=O)N[C@@H](C(C)C)C(=O)N[C@@H]([C@@H](C)O)C(=O)N[C@@H](CC(N)=O)C(=O)N[C@@H](CCC(N)=O)C(=O)N[C@H]3CSSC[C@H](NC(=O)[C@H](CCCNC(=N)N)NC(=O)CNC(=O)[C@H](CC(N)=O)NC1=O)C(=O)N[C@@H](CCCCN)C(=O)N[C@H](C(=O)N[C@@H](Cc1ccc(O)cc1)C(N)=O)CSSC[C@H](NC(=O)[C@@H]1CCCN1C(=O)[C@H](CCCCN)NC(=O)[C@@H]1CCCN1C3=O)C(=O)N[C@@H](CCCNC(=N)N)C(=O)N[C@@H](CCC(=O)O)C(=O)N[C@@H](C)C(=O)N[C@@H]([C@@H](C)O)C(=O)NCC(=O)N[C@@H](CCCNC(=N)N)C(=O)N1CCC[C@H]1C(=O)N[C@@H](CC(N)=O)C(=O)N[C@@H](CO)C(=O)N[C@@H](CCCCN)C(=O)N2` [LaIT6] (HELM PEPTIDE1{S.V.P.P.N.I.P.C.Q.V.T.N.Q.C.P.K.P.C.R.E.A.T.G.R.P.N.S.K.C.I.N.G.R.C.K.C.Y.[am]}$PEPTIDE1,PEPTIDE1,8:R3-29:R3|PEPTIDE1,PEPTIDE1,14:R3-34:R3|PEPTIDE1,PEPTIDE1,18:R3-36:R3$$$V2.0), in data set [2], the “Mammalian toxicity (toxic symptoms) in mice” value was “did not observe any toxic symptoms”. Also, at Shaker-IR K+ channel (95% CI 4.8–14 nM), the IC50 came out at 8.2 nM.

The term IC50 denotes the midpoint of a concentration-inhibition curve.
